{"source": "patent US20090099212A1", "about": "“A3 ADENOSINE RECEPTOR ANTAGONISTS” (priority 2007, published 2009)", "key": {"[1]": {"biological_target": "T1, A3 adenosine receptor (Homo sapiens, UniProt P0DMS8)", "T1 construct": "expressed in transfected cells; host or cells: HEK-293 or CHO cells (HEK-A3 or CHO-A3), membranes", "T1 sequence (P0DMS8 1-318)": "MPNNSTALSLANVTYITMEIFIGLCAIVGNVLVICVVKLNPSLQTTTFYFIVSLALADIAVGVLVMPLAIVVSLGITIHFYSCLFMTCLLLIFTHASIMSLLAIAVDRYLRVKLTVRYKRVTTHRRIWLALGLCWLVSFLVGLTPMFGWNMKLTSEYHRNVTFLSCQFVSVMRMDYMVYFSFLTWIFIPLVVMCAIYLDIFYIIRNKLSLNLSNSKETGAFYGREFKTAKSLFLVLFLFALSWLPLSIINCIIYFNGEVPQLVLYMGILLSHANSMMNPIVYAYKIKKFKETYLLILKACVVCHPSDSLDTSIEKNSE", "experiment": "Radioligand binding competition, A3 AdoR (125I-AB-MECA), membranes of HEK-A3 or CHO-A3 cells", "protocol": "The cDNAs for human A1, A2A, A2B or A3 AdoRs were prepared by RT-PCR from total RNA of human cells or tissues and sequenced on both strands. The expression vector containing each of these cDNAs and a second vector containing a neomycin or puromycin-resistance gene were introduced to HEK-293 or CHO cells by Lipofectin-Plus (Life Technology). Colonies were selected by growing transfected cells in the presence of neomycin or puromycin. Stably transfected cells were maintained in Dulbecco's modified Eagle's medium (DMEM) or F-12 medium with 10% fetal bovine serum, 100 μg/ml penicillin, 100 μg/ml streptomycin and appropriate concentrations of neomycin or puromycin. These stably transfected cells were referred to as HEK-“AdoR” or CHO-“AdoR” depending on the receptors that they express. For example, cells that were transfected with A3 AdoRs were referred to as HEK-A3 or CHO-A3.\nMonolayers of transfected cells were washed with phosphate buffered saline (PBS) and harvested in a buffer containing 10 mM HEPES (pH 7.4), 10 mM EDTA and protease inhibitors. The cells were homogenized in polytron for 1 minute at setting 4 and centrifuged at 29000 g for 15 minutes at 4° C. The cell pellets were washed with a buffer containing 10 mM HEPES (pH7.4), 1 mM EDTA and protease inhibitors, and were resuspended in the same buffer supplemented with 10% sucrose. Frozen aliquots were kept at −80° C.\nThe affinities of compounds for A1, A2A, A2B or A3 AdoRs were determined in competition studies using radioligands such as ^3H-CPX (A1 antagonist), or ^3H-CCPA (A1 agonist), ^3H-ZM241385 (A2A antagonist) or ^3H-CGS21680 (A2A agonist), ^3H-ZM241385 (A2B antagonist) or ^125I-AB-MECA (A3 agonist) and membranes of corresponding transfected cells. For example, to determine the affinity for A3 AdoRs, the competition assays were started by mixing 0.2 nM ^125I-AB-MECA with various concentrations of test compounds and 25 ug membrane proteins of HEK-A3 or CHO-A3 in TEM buffer (50 mM Tris, 1 mM EDTA and 10 mM MgCl2) supplemented with 1 U/ml adenosine deaminase. The assays were incubated for 90 minutes, stopped by filtration onto GF/B filter plates using Packard Harvester and washed four times with ice-cold TM buffer (10 mM Tris, 1 mM MgCl2, pH 7.4). The amounts of radioligands that bound to the GF/B filter plates were determined by scintillation counting. Nonspecific binding was determined in the presence of 10 μM R-PIA (phenylisopropyladenosine) or 1 μM IB-MECA. Bmax and KD values were calculated using GraphPad software."}, "[2]": {"biological_target": "T2, A1 adenosine receptor (Homo sapiens, UniProt P30542)", "T2 construct": "expressed in transfected cells; host or cells: HEK-293 or CHO cells, membranes", "T2 sequence (P30542 1-326)": "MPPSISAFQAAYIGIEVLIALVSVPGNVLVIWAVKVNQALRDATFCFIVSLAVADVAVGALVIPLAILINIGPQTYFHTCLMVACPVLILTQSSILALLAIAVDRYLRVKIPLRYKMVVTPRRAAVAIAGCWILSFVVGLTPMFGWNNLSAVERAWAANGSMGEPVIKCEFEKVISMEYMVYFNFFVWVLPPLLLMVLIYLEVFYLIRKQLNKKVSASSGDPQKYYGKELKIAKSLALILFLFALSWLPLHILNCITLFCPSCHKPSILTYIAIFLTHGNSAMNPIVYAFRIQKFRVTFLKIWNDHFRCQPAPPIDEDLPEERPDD", "experiment": "Radioligand binding competition, A1 AdoR (3H-CPX or 3H-CCPA), membranes of transfected cells", "details": "Table 2", "protocol": "(§1) The cDNAs for human A1, A2A, A2B or A3 AdoRs were prepared by RT-PCR from total RNA of human cells or tissues and sequenced on both strands. The expression vector containing each of these cDNAs and a second vector containing a neomycin or puromycin-resistance gene were introduced to HEK-293 or CHO cells by Lipofectin-Plus (Life Technology). Colonies were selected by growing transfected cells in the presence of neomycin or puromycin. Stably transfected cells were maintained in Dulbecco's modified Eagle's medium (DMEM) or F-12 medium with 10% fetal bovine serum, 100 μg/ml penicillin, 100 μg/ml streptomycin and appropriate concentrations of neomycin or puromycin. […]\n(§2) The affinities of compounds for A1, A2A, A2B or A3 AdoRs were determined in competition studies using radioligands such as ^3H-CPX (A1 antagonist), or ^3H-CCPA (A1 agonist), ^3H-ZM241385 (A2A antagonist) or ^3H-CGS21680 (A2A agonist), ^3H-ZM241385 (A2B antagonist) or ^125I-AB-MECA (A3 agonist) and membranes of corresponding transfected cells. […] The amounts of radioligands that bound to the GF/B filter plates were determined by scintillation counting. Nonspecific binding was determined in the presence of 10 μM R-PIA (phenylisopropyladenosine) or 1 μM IB-MECA. Bmax and KD values were calculated using GraphPad software."}, "[3]": {"biological_target": "T3, A2A adenosine receptor (Homo sapiens, UniProt P29274)", "T3 construct": "expressed in transfected cells; host or cells: HEK-293 or CHO cells, membranes", "T3 sequence (P29274 whole entry)": "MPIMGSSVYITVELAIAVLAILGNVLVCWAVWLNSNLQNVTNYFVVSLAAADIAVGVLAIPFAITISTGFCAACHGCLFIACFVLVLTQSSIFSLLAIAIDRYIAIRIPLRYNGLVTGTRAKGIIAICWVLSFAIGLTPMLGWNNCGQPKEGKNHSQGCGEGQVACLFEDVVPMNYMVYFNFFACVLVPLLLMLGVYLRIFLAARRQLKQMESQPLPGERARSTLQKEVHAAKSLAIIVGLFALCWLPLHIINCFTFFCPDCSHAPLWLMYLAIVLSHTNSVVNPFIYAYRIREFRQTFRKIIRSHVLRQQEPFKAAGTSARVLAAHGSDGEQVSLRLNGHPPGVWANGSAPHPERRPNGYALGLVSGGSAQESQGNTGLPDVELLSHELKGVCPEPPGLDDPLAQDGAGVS", "experiment": "Radioligand binding competition, A2A AdoR (3H-ZM241385 or 3H-CGS21680), membranes of transfected cells", "details": "Table 2", "protocol": "as §1, §2"}, "[4]": {"details": "Table 1, 0.2 nM 125I-AB-MECA, HEK-A3 or CHO-A3 membranes"}, "[5]": {"details": "Table 2, 125I-AB-MECA competition"}}}
{"compound": "(6-amino-9-propyl-8-pyrazolylpurin-2-yl)[2-(4-fluorophenyl)ethyl]amine", "values": [{"measurement": "Ki", "setting": "[1]; [4]", "value": 210, "unit": "nM"}]}
{"compound": "((1S)-1-phenylethyl)[6-amino-8-(4-methylpyrazolyl)-9-propylpurin-2-yl]amine", "values": [{"measurement": "Ki", "setting": "[1]; [5]", "value": 0.9, "unit": "nM"}]}
{"compound": "(6-amino-9-propyl-8-pyrazolylpurin-2-yl)[2-(3-fluorophenyl)ethyl]amine", "values": [{"measurement": "Ki", "setting": "[1]; [4]", "value": 82, "unit": "nM"}]}
{"compound": "N-{2-[(2-phenylethyl)amino]-9-propyl-8-pyrazolylpurin-6-yl}[4-(trifluoromethyl)phenyl]carboxamide", "values": [{"measurement": "Ki", "setting": "[1]; [4]", "value": 3120, "unit": "nM"}]}
{"compound": "CCn1c(-n2cc(C)cn2)nc2c(NC(=O)C(C)(C)C)nc(NCc3ccccc3)nc21", "note": "[N-{9-ethyl-8-(4-methylpyrazolyl)-2-[benzylamino]purin-6-yl}-2,2-dimethylpropanamide]", "values": [{"measurement": "Ki", "setting": "[1]; [4]", "value": 18.6, "unit": "nM"}]}
{"compound": "N-{9-ethyl-2-[benzylamino]-8-pyrazolylpurin-6-yl}-2-methoxyacetamide", "values": [{"measurement": "Ki", "setting": "[1]; [4]", "value": 3, "unit": "nM"}, {"measurement": "Ki", "setting": "[1]; [5]", "value": 3, "unit": "nM"}, {"measurement": "Ki", "setting": "[2]", "value": 3950, "unit": "nM"}]}
{"compound": "CCn1c(-n2cccn2)nc2c(N)nc(NCc3ccccc3)nc21", "note": "[(6-amino-9-ethyl-8-pyrazolylpurin-2-yl)benzylamine]", "values": [{"measurement": "Ki", "setting": "[1]; [4]", "value": 7, "unit": "nM"}]}
{"compound": "(6-amino-9-propyl-8-pyrazolylpurin-2-yl)[2-(2,5-dimethoxyphenyl)ethyl]amine", "values": [{"measurement": "Ki", "setting": "[1]; [4]", "value": 112, "unit": "nM"}]}
{"compound": "N-{2-[(2-phenylethyl)amino]-9-propyl-8-pyrazolylpurin-6-yl}[3-(trifluoromethyl)phenyl]carboxamide", "values": [{"measurement": "Ki", "setting": "[1]; [4]", "value": 910, "unit": "nM"}]}
{"compound": "CCn1c(-n2cc(-c3cccc(C(F)(F)F)c3)cn2)nc2c(N)nc(NCc3ccccc3)nc21", "note": "[(6-amino-9-ethyl-8-{4-[3-(trifluoromethyl)phenyl]pyrazolyl}purin-2-yl)benzylamine]", "values": [{"measurement": "Ki", "setting": "[1]; [4]", "value": 1480, "unit": "nM"}]}
{"compound": "CCn1c(-n2cc(C)cn2)nc2c(N)nc(NCc3ccccc3)nc21", "note": "[[6-amino-9-ethyl-8-(4-methylpyrazolyl)purin-2-yl]benzylamine]", "values": [{"measurement": "Ki", "setting": "[1]; [4]", "value": 2, "unit": "nM"}, {"measurement": "Ki", "setting": "[2]", "value": 225, "unit": "nM"}, {"measurement": "Ki", "setting": "[3]", "value": 2040, "unit": "nM"}]}
{"compound": "(6-amino-9-propyl-8-pyrazolylpurin-2-yl)(2-phenylethyl)amine", "values": [{"measurement": "Ki", "setting": "[1]; [4]", "value": 52, "unit": "nM"}]}
